# Residues, ends and D or L forms follow the SMILES beside them. *: point of attachment. Acm = CC(=O)NC*
# What was measured:
# [1] = molecular target: T1, PSMA-His6 (Homo sapiens, UniProt Q04609); test: PSMA enzyme assay (NAAG hydrolysis, Amplex Red glutamate detection); type: biochemical; design: A 15-mer library was screened against the soluble ectodomain of PSMA; purchased R&D Systems
# Description: The glutamic acid/glutamate released from the natural substrate of PSMA, NAAG (N-acetylaspartylglutamate), was analyzed by the fluorescence-based Amplex Red Glutamic Acid/Glutamate Oxidase assay kit (Invitrogen) as previously described, [22], [32], [33]. […] Then NAAG (4 µM, 10 µL) was added to the peptide/PSMA-His6 mixture (37°C, 30 min). The enzymatic reaction was quenched (500 mM NaH2PO4/Na2HPO4, pH 7.4, 10 µL). […] Data was analyzed by non-linear regression with GraphPad Prism.
# [2] = molecular target: T1, PSMA-His6; test: AlphaScreen competition binding assay
# Description: The AlphaScreen competition binding assay was performed based on published procedures [29], [30], [31]. […] The mixture was incubated (ambient temperature, 1 h), and then nickel chelate acceptor beads (5 µL, 120 µg/mL) were added followed by a second incubation (dark, ambient temperature, 1 h). Streptavidin donor beads (5 µL, 120 µg/mL) were added for a final incubation (dark, ambient temperature, 30 m). […] Data was analyzed by non-linear regression with GraphPad Prism.
# Only when the peptide binds to PSMA (thus bringing the two beads close to each other), can the AlphaScreen (emission) signal be generated, in which case, the singlet oxygen generated by the excitation at 680 nm on the donor bead can transfer energy to the adjacent acceptor bead and subsequently produce an emission signal at 520–620 nm.
# [3] = NAAG substrate, PSMA-His6, 37°C, read-out: Enzyme inhibition (footnote symbols: no inhibition observed at the stated concentration)
# [4] = highest concentration tested without inhibition, limited by solubility of the peptide, read-out: PSMA enzymatic reaction: no inhibition at the stated concentration
# T1 sequence (Q04609 44-750 limits assumed): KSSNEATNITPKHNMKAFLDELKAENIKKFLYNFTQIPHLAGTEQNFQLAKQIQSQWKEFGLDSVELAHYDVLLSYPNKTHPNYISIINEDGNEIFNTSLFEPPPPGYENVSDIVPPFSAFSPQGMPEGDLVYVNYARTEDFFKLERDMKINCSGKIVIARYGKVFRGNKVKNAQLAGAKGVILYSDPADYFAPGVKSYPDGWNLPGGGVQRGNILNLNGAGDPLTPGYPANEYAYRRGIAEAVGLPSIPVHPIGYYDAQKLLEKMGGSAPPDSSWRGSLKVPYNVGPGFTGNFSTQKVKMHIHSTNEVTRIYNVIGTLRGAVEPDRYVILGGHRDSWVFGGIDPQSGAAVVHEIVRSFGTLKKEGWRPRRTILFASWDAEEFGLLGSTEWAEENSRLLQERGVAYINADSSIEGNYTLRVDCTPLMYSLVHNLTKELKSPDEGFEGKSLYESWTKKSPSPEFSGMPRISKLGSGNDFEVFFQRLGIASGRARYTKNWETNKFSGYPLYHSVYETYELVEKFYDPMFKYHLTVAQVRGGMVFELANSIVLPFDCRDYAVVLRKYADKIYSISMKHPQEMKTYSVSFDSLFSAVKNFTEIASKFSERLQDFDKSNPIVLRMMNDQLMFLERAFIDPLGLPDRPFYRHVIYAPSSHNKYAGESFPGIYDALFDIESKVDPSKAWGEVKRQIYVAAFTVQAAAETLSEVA
"IC50 [1, 3]","IC50 [1, 4]",IC50 [2],Structure (SMILES),"IC50 ([1]; against 1 µM NAAG, peptide pre-incubated with PSMA-His6 37°C 30 min, reaction 37°C 30 min, TBS, fluorescence Ex 530/Em 590, read-out: Enzyme inhibition IC50)"
,,,CC(C)[C@H](NC(=O)[C@H](CO)NC(=O)[C@H](Cc1ccccc1)NC(=O)[C@H](CO)NC(=O)[C@H](Cc1c[nH]cn1)NC(=O)[C@@H](N)CO)C(=O)NCC(=O)N[C@@H](CO)C(=O)NCC(=O)N[C@@H](CC(=O)O)C(=O)N[C@@H](Cc1c[nH]cn1)C(=O)N[C@@H](CO)C(=O)N1CCC[C@H]1C(=O)N[C@@H](Cc1ccccc1)C(=O)N[C@H](C(=O)NCC(=O)NCC(=O)NCC(=O)N[C@@H](CO)C(=O)NCCOCCOCCOCCOCCOCCOCCC(=O)N[C@@H](CSC1CC(=O)N(CCC(=O)NCCCC[C@H](NC(=O)CCN2C(=O)CC(SC[C@H](NC(=O)CCOCCOCCOCCOCCOCCOCCNC(=O)[C@H](CO)NC(=O)CNC(=O)CNC(=O)CNC(=O)[C@@H](NC(=O)[C@H](Cc3ccccc3)NC(=O)[C@@H]3CCCN3C(=O)[C@H](CO)NC(=O)[C@H](Cc3c[nH]cn3)NC(=O)[C@H](CC(=O)O)NC(=O)CNC(=O)[C@H](CO)NC(=O)CNC(=O)[C@@H](NC(=O)[C@H](CO)NC(=O)[C@H](Cc3ccccc3)NC(=O)[C@H](CO)NC(=O)[C@H](Cc3c[nH]cn3)NC(=O)[C@@H](N)CO)C(C)C)[C@@H](C)O)C(N)=O)C2=O)C(=O)NCCCC[C@H](NC(=O)[C@H](CCCCNC(=O)CCN2C(=O)CC(SC[C@H](NC(=O)CCOCCOCCOCCOCCOCCOCCNC(=O)[C@H](CO)NC(=O)CNC(=O)CNC(=O)CNC(=O)[C@@H](NC(=O)[C@H](Cc3ccccc3)NC(=O)[C@@H]3CCCN3C(=O)[C@H](CO)NC(=O)[C@H](Cc3c[nH]cn3)NC(=O)[C@H](CC(=O)O)NC(=O)CNC(=O)[C@H](CO)NC(=O)CNC(=O)[C@@H](NC(=O)[C@H](CO)NC(=O)[C@H](Cc3ccccc3)NC(=O)[C@H](CO)NC(=O)[C@H](Cc3c[nH]cn3)NC(=O)[C@@H](N)CO)C(C)C)[C@@H](C)O)C(N)=O)C2=O)NC(=O)CCN2C(=O)CC(SC[C@H](NC(=O)CCOCCOCCOCCOCCOCCOCCNC(=O)[C@H](CO)NC(=O)CNC(=O)CNC(=O)CNC(=O)[C@@H](NC(=O)[C@H](Cc3ccccc3)NC(=O)[C@@H]3CCCN3C(=O)[C@H](CO)NC(=O)[C@H](Cc3c[nH]cn3)NC(=O)[C@H](CC(=O)O)NC(=O)CNC(=O)[C@H](CO)NC(=O)CNC(=O)[C@@H](NC(=O)[C@H](CO)NC(=O)[C@H](Cc3ccccc3)NC(=O)[C@H](CO)NC(=O)[C@H](Cc3c[nH]cn3)NC(=O)[C@@H](N)CO)C(C)C)[C@@H](C)O)C(N)=O)C2=O)C(=O)NCCC(=O)O)C1=O)C(N)=O)[C@@H](C)O (stereo partly drawn) [(562)4],311 µM
> 55.5 µM,> 55.5 µM,,CC(=O)NCSC[C@H](NC(=O)[C@H](CO)NC(=O)[C@H](Cc1ccccc1)NC(=O)[C@H](Cc1ccccc1)NC(=O)[C@H](CO)NC(=O)[C@@H](N)CC(C)C)C(=O)N[C@@H](Cc1c[nH]c2ccccc12)C(=O)N[C@@H](CC(C)C)C(=O)N[C@@H](CCCNC(=N)N)C(=O)N[C@@H](CCCNC(=N)N)C(=O)N[C@@H](CO)C(=O)N[C@@H](Cc1ccccc1)C(=O)N[C@@H](CO)C(=O)N[C@@H](CC(C)C)C(=O)N[C@H](C(N)=O)[C@@H](C)O [Peptide 564] (H-LSFFSC(Acm)WLRRSFSLT-NH2),
> 14.5 µM,> 14.5 µM,> 4.83 µM,CC[C@H](C)[C@H](NC(=O)[C@H](CSCNC(C)=O)NC(=O)[C@H](CCCNC(=N)N)NC(=O)[C@H](CCSC)NC(=O)[C@H](CC(C)C)NC(=O)[C@H](Cc1ccccc1)NC(=O)[C@H](CC(C)C)NC(=O)[C@H](CC(C)C)NC(=O)[C@H](Cc1ccccc1)NC(=O)[C@H](CCSC)NC(=O)[C@H](CCCNC(=N)N)NC(=O)[C@H](C)N)C(=O)NCC(=O)N[C@@H](CSCNC(C)=O)C(=O)N[C@@H](Cc1ccc(O)cc1)C(N)=O [Peptide 565] (H-ARMFLLFLMRC(Acm)IGC(Acm)Y-NH2; N-terminus assumed),

# Reference: article PMC3723849, “Evaluation of Phage Display Discovered Peptides as Ligands for Prostate-Specific Membrane Antigen (PSMA)” (PLoS ONE, 2013)
